Consider one substance from patent publication US20040071656A1, “Modulation of heat-shock-protein-based immunotherapies” (priority 2001, published 2004).

One test deals with ANA1 cells. Kind of test: Binding of biotinylated Hsp70 / Hsp70-peptide C-biotin to ANA1 macrophage cells, fluorescence microscopy. The format is cell-based, murine. As to conditions: 100 nM biotinylated protein. The protocol:
Cell culture and fluorescence microscopy. The murine macrophage cell line ANA1 was kindly provided by H. Wagner (Munich, Germany). ANA-1 cells were cultured in VLE-RPMI 1640 (Biochrom), supplemented with 10% FCS, 2 mM L-glutamine and antibiotics. For fluorescence microscopy, ANA1 cells were either stimulated with LPS (20 μg/ml, Sigma, Germany), or kept in an LPS-free medium (mock treatment) for 7 h. After stimulation, cells were harvested and incubated with 100 nM biotinylated Hsp70, biotinylated GST, or Hsp70/peptide C-biotin complex for 30 min at 0° C. in VLE-RPMI 1640. After incubation cells were processed for staining with streptavidin-TRITC (Sigma, Germany), fixed with paraformaldehyde and analyzed by fluorescence microscopy (Axiovert 35, Zeiss) as described (Sondermann et al., 2000). […] Twenty-four h post-transfection cells were incubated with 250 nM biotinylated Hsp70, biotinylated GST or Hsp70/peptide C-biotin complex for 30 min at 0° C. in DMEM, fixed, stained with streptavidin-TRITC (Sigma, Germany), and analyzed by fluorescence microscopy as described (Sondermann et al., 2000, idem). […] Stably transfected cell lines were analyzed by immunoblotting for CD40 expression using an anti-CD40 antibody (CSA180, Stressgen). […]
Details for FIG. 1. […] After 30 min at 4° C. cells were washed, incubated with TRITC-labeled streptavidin, washed again, and processed for fluorescence microscopy. […]

In the next test the target is T1, endogenous CD40 (Mus musculus, UniProt P27512).
T1 construct: endogenous CD40 in extracts of LPS-stimulated ANA1-cells; endogenous in cells; host or cells: ANA1 murine macrophage cell line, LPS-stimulated
T1 sequence (P27512 20-289): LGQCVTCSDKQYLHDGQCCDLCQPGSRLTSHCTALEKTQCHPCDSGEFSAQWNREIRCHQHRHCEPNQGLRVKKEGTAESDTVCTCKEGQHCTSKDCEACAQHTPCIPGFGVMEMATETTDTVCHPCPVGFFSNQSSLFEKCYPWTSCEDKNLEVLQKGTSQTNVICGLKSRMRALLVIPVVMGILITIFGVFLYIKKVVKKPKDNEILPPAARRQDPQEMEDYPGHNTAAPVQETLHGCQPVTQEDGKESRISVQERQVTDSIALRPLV
Kind of test: Binding assay with His6-tagged Hsp70 and Ni-NTA-agarose, ANA1 cell lysate. Details: species or system murine. The following applies: His-tagged Hsp70, with or without ADP. The protocol:
Binding assay with His6-tagged Hsp70 and Ni-NTA-agarose. ANA1-cells were stimulated with LPS as described above and lysed in lysis buffer (150 mM Tris/HCl, ph 7,5, 1% CHAPS) for 45 min at 4° C. Cell lysate was centrifuged at 100,000 g for 15 min at 4° C. […] of the supernatant was incubated with 10 μg of His6-tagged Hsp70, preincubated with ADP and a 30-fold excess of peptide C, or mock treated, as described above for biotinylated proteins, for 30 min at 4° C. Thereafter the samples were added to 20 μl of 1% BSA-treated Ni-NTA-agarose (Quiagen) and incubated for 30 min at 4° C. Unbound protein was removed by washing the beads three times with 1 ml lysis buffer, and immobilized proteins eluted with 10 μl SDS-PAGE-sample buffer by incubation for 5 min at 95° C. Eluates were analyzed by immunoblotting using an anti-CD40 antibody (CSA-180, Stressgen).
Details for FIG. 3. […] Thereafter samples were affinity purified on glutathione-Sepharose as outlined in Experimental Procedures, subjected to SDS-PAGE and analyzed by immunoblotting with antibodies directed against Hsc70 and Hsp70 (upper lanes), and against Hsp90 (lower lanes). […] After affinity purification samples were analyzed by immunoblotting as described in A, using antibodies directed against the His6-tag. […] Protein bound to Hsp70 was analyzed by affinity purification on Ni-NTA-agarose and immunoblotting with antibodies directed against CD40.

As to “Hsp70: Recombinant human heat shock protein 70, expressed and purified as His-tagged protein”, the “binding to LPS-stimulated ANA-1 cells” value in the test with ANA1 cells (LPS 20 μg/ml 7 h) was “significant increase in binding”. Besides, the “binding to unstimulated ANA-1 cells” value in the test on ANA1 cells (mock treated cells, 30 min, streptavidin-TRITC) was “weak but clearly detectable binding”. In addition, the “interaction with endogenous CD40 in extracts of LPS-stimulated ANA1-cells” value with endogenous CD40 was “interacted, in an ADP-dependent manner”.
